Test results from US10849866B2, “Methods for inhibiting conversion of choline to trimethylamine (TMA)” (The Procter & Gamble Company, priority 2017, dated 2020).

Legend:
[1] = tested on: Proteus mirabilis 29906 (Pm) lysate; assay: Inhibition of formation of TMA from choline in Proteus mirabilis lysate (Example 2); format: biochemical; conditions: Pm lysate 1.5 mg/mL protein, 50 μM d9-choline chloride, 37° C., two hours; read-out: TMA Inhibition (IC50, mol/L)
Procedure: Choline chloride (CC) (1M stock) was added to reach a final concentration of 2.5 mM choline chloride. The mixture was mixed using a vortex mixer for approximately 15 seconds and incubated at 37° C. for 22 hours. After incubation, 150 μL of CC-treated Pm lysate was dispensed into a deep-well plate (polypropylene, 2 mL volume, Corning Axygen catalogue # P-DW-20-C). […] The plates were agitated on a plate shaker for 1 minute. d9-choline chloride (1.5 μL of 5 mM) was added to all wells to reach a final d9-choline chloride concentration of 50 μM.
The plates were again agitated on a plate shaker for 1 minute and incubated at 37° C. for two hours. After incubation, 1.5 μL of formic acid was added to each well (final concentration=1% formic acid). The plates were agitated on a plate shaker for 1 minute and placed on ice. Cell lysate samples were spiked with stable isotope labeled internal standard (22.5 μL of 6 μg/mL of 13C3-trimethylamine (13C3-TMA) was added to each sample), then d9-trimethylamine (d9-TMA), trimethylamine (TMA) and 13C3-TMA were isolated from the lysate after protein precipitation as described below. […] The supernatant was removed and analyzed as described below. […] The concentrations of TMA and d9-TMA in the cell lysate were determined by interpolation from the quadratic (1/×2) regression curve.

[2] = target: T1, recombinant P. mirabilis Cut C/D lysate (Proteus mirabilis, UniProt B4EYG1); assay: Inhibition of conversion of choline to TMA by recombinant P. mirabilis Cut C/D lysate (Example 5); format: biochemical
T1 sequence (B4EYG1 1-1142): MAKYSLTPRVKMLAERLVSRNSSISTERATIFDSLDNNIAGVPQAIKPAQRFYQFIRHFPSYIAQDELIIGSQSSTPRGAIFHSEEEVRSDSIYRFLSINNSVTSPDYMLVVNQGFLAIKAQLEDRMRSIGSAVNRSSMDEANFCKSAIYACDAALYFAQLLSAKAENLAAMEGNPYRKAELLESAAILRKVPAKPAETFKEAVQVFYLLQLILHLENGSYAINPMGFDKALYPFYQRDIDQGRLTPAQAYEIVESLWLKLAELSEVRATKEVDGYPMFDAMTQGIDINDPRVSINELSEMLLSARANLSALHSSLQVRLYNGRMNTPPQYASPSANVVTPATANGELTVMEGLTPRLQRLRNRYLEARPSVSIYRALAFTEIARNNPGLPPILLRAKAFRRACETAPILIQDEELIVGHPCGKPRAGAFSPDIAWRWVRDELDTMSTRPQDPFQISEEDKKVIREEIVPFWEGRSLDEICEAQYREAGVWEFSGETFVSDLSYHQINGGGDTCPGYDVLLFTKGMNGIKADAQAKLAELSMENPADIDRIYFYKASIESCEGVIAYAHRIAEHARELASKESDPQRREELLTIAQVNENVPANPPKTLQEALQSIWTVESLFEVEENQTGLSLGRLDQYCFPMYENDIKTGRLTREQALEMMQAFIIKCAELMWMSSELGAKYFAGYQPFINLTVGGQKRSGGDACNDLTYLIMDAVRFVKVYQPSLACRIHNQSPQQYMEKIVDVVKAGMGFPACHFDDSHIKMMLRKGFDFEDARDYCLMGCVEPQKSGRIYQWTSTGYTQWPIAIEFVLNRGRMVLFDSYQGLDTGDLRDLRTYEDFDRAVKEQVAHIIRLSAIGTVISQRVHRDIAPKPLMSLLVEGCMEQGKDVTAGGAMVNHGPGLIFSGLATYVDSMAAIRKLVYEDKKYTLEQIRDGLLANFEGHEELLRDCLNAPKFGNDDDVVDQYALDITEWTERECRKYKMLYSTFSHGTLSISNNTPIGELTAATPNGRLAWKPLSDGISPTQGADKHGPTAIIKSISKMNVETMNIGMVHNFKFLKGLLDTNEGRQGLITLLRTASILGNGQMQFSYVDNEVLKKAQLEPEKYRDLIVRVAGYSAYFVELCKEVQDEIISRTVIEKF
T1 sequence (B4EYG0 1-316 partner): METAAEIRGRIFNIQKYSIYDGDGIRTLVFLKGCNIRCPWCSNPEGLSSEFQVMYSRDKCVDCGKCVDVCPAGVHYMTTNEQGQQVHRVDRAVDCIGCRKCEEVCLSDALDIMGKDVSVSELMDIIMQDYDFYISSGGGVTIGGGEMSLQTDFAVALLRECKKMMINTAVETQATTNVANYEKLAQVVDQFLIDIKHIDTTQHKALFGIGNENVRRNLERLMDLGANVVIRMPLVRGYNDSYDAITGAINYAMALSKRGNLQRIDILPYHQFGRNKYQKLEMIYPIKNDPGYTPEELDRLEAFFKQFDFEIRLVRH
Procedure: (§1) Briefly, efficacy was measured as IC50 (nM) by inhibition of conversion of choline to TMA metabolized by recombinant P. mirabilis Cut C/D lysate; recombinant D. alaskensis Cut C/D lysate, or whole cell wild-type P. mirabilis.

[3] = target: T2, recombinant D. alaskensis Cut C/D lysate (Oleidesulfovibrio alaskensis, UniProt Q30W70); assay: Inhibition of conversion of choline to TMA by recombinant D. alaskensis Cut C/D lysate (Example 5); format: biochemical
T2 construct: made in house
T2 sequence (Q30W70 1-846): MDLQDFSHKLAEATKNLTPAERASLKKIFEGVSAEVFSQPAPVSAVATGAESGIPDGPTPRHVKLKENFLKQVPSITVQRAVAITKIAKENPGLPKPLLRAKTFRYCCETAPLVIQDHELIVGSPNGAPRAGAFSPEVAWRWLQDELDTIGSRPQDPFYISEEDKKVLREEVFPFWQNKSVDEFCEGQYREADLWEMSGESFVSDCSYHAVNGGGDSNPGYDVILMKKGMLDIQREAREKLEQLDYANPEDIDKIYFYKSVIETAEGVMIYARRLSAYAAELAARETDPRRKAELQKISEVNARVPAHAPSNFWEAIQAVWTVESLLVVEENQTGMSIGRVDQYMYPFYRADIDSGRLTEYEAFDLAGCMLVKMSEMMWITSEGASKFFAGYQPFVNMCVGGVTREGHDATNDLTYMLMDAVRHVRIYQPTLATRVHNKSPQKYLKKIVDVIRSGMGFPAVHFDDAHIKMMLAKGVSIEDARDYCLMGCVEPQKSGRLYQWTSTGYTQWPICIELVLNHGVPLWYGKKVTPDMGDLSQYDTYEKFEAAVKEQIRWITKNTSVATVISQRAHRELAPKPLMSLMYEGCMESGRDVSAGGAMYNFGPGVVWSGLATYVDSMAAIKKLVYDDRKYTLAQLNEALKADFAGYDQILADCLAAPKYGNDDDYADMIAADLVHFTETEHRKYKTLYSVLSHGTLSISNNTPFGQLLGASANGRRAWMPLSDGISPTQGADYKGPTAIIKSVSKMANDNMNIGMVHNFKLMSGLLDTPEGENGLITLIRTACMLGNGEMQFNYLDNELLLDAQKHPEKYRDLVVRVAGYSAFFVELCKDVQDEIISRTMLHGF
Procedure: as §1

[4] = tested on: whole cell wild-type P. mirabilis; assay: Inhibition of conversion of choline to TMA by whole cell wild-type P. mirabilis (Example 5); format: cell-based; conditions: Proteus mirabilis
Procedure: as §1

[5] = tested on: conversion of choline to TMA; assay: Rapid preclinical method: d9-choline challenge in mice (Example 6); format: in vivo, C57bl/6 female mice; conditions: oral gavage with 2 mg d9-Choline, plasma, Time 3 hr
Procedure: Challenge: C57bl/6 female mice (8 wk of age ˜20 g BW) were maintained in accordance with the NIH guidelines in a 12:12 hr light:dark cycle on normal chow diet were placed in a clean cage without food ˜1 hr prior to gavage. […] Food was returned after a 2 hr fast (1 hr after gavage administration). Blood (30 μL) was collected into a heparinized capillary tube at 2, 3 and 4 hours after gavage. Blood was kept at 4° C., then spun using a centrifuge (5 min in centrifuge designed to capillary tubes) to separate plasma and hematocrit within 4 hours after collection. Plasma samples were stored at −80° C. Concentration of d9 Choline, d9TMA and d9TMAO was measured by LC-MS/MS.
Flora Normalization: Twenty four hours post-gavage mice were placed in a clean cage and fecal material from conventional mice was spread in all the cages.

Row | Structure (SMILES) | IC50 [1] [nM] | IC50 [2] [nM] | IC50 [3] [nM] | EC50 [4] [nM] | Calculated EC50 (mg/kg) compared to Vehicle Control [5] [mg/kg]
1 | C[N+](C)(CCl)CCF [ID 1, N-(chloromethyl)-2-fluoro-N,N-dimethylethan-1-aminium chloride] | 270 | 690 | 760 | 8700 | 3.10
2 | C[N+](C)(CI)CCF [ID 2, 2-fluoro-N-(iodomethyl)-N,N-dimethylethan-1-aminium chloride] | 179 | 240 | 150 | 67000 | 15.40
